# Source: US4259329A, “17-Cyclobutylmethyl-3-hydroxy-β-methyl-6-methylene morphinane, and methods of treating pain with them” (priority 1980, dated 1981)
# “Also recorded” adds a separate entry of the source. Where a name gives a salt, the structure may show the parent alone. Read-outs that look alike come from different tables or passages of the source.
# How the values were obtained:
# [1] = tested on: Physically Morphine Dependent Rats; format: in vivo
# Experimental: (§1) Substitution Studies in Physically Morphine Dependent Rats
# (§2) Rats were made physically dependent by continuous infusion of morphine through an indwelling intraperitoneal cannula as has been described (D. G. Teiger, J. Pharmacol. Exp. Ther., 190 408, 1974). Then one day substitution of either TR-5257 or TR-5379 was studied. Both drugs were infused at the rate of 125 mg/kg/day.
# [2] = tested on: mice (acetic acid writhing); assay: Acetic Acid Mouse Writhing Test (analgesic effects); format: in vivo, male CD-1 mice; conditions: sc, 0.25 h, subcutaneous, acetic acid i.p. 15 min post drug, read-out: ED50 (dose required to reduce the number of writhes by 50%)
# Experimental: Acetic Acid Mouse Writhing Test
# The analgesic effects of the test compounds were determined in mice by use of the acetic acid writhing test described by B. A. Whittle, Brit. J. Pharmacol., 22: 246 (1964). In this test at least three groups of 5 male CD-1 mice each were given subcutaneous doses of the test drug dissolved in distilled water. In all cases 0.4 milliliters of a 0.5% V/V acetic acid in distilled water solution was administered intraperitoneally 15 minutes post drug. The number of writhes in a 20 minute interval beginning 5 minutes after the acetic acid injection were determined and compared with the number of writhes in a control group which had received only acetic acid.
# Percent inhibition of writhing was calculated as: [formula]
# The ED50 dose, i.e., the dose required to reduce the number of writhes by 50%, was determined graphically from a plot of % inhibition as a probit verus log dose. Confidence limits of 95% were calculated on the basis of those results falling in the range 16-84% inhibition. See Litchfield, J. T. and Wilcoxon, F., J. Pharmacol. Exp. Ther., 96, 99-113 (1949).
# [3] = tested on: Physically Morphine Dependent Rats; assay: Incidence of side effects during substitution in morphine dependent rats
# Experimental: as §1, §2
# *Post termination of morphine infusion and during test drug infusion.
# [4] = tested on: rats (effect of morphine, tail flick); assay: Evaluation of Narcotic Antagonist Activity (modified rat tail flick test, antagonism of morphine); format: in vivo, male albino Wistar rats
# Experimental: Evaluation of Narcotic Antagonist Activity
# The narcotic antagonist effect of the test compound was determined by a modification of the rat tail flick procedure of Harris and Pierson (J. Pharmacol. Exp. Ther., 143:141 [1964]).
# Male albino Wistar rats (100-120 g) were used for this study. A rat's tail is so placed so as to cover a photocell. Heat is applied by a lamp in a reflector with a timer being connected to the lamp and photocell so that the timer goes on when the light is turned on and is turned off when the photocell is uncovered. A rheostat, incorporated into a heating lamp is used to adjust the intensity of the light falling on the tail of the rat such that the rat's control reaction time is from two to four seconds. Animals with a control reaction time outside this range are rejected. The rheostat adjustment is made only if a significant proportion (1 out of every 10 rats) of the reaction times are outside the range of two to four seconds. Groups of 5 rats were used, and two control times were determined at 60 and 30 minutes prior to subcutaneous injection of the drug.
# At least thirty minutes after the last control run the test drug was given […]. This was followed ten minutes later by an ED80 dose of morphine subcutaneously. The animals were retested at 20 minutes after the morphine injection. Control animals were given vehicle and morphine only. The data were calculated as follows: [formula]
# The data were plotted on log-probit paper and AD50 values, i.e., the dose required to inhibit the effect of morphine by 50% within 95% confidence limits, were determined by the method of Litchfield and Wilcoxon.
# drug dependent monkeys = assay: Substitution for morphine in drug dependent monkeys; format: in vivo
# [5] = +6 hr post termination of morphine infusion, during test drug infusion
smiles,measurement,setting,value
CN1CC[C@]23c4c5ccc(O)c4O[C@H]2[C@@H](O)C=C[C@H]3[C@H]1C5 [Morphine],Mean % Change in Weight From Termination of Morphine Infusion,"[1]; +1 day (test drug infusion stopped here), 125 mg/kg/day for 1 day, morphine: infusion schedule 50-200 mg/kg/day",-16.8%
same,Mean % Change in Weight From Termination of Morphine Infusion,"[1]; +2 days, 125 mg/kg/day for 1 day, morphine: infusion schedule 50-200 mg/kg/day",-12.7%
same,Mean % Change in Weight From Termination of Morphine Infusion,"[1]; +3 days, 125 mg/kg/day for 1 day, morphine: infusion schedule 50-200 mg/kg/day",-7.8%
same,Mean % Change in Weight From Termination of Morphine Infusion,"[1]; +4 days, 125 mg/kg/day for 1 day, morphine: infusion schedule 50-200 mg/kg/day",-1.6%
"C[C@H]1CC(=O)C[C@]23CCN(CC4CCC4)[C@H](Cc4ccc(O)cc42)[C@H]13.O=C(O)C(O)C(O)C(=O)O [TR-5257, 17-Cyclobutylmethyl-3-hydroxy-8β-methylmorphinan-6-one Tartrate]",ED50,[2],0.14 mg/kg
same,Incidence of Aggressive,[3]; [5],1/8
same,Incidence of Diarrhea,[3]; [5],4/8
same,Incidence of Pilo erection,[3]; [5],8/8
same,Incidence of Wet dog shakes,[3]; [5],6/8
same,Incidence of Pilo erection,[3]; +24 hr,4/8
same,Incidence of Tremors,[3]; +24 hr,1/4
same,Incidence of Pilo erection,[3]; +30 hr,4/8
same,withdrawal symptoms,"[3]; during period of drug substitution, 125 mg/kg/day",marked withdrawal symptoms
same,loss in weight during substitution (in words),"[1]; rat, in vivo",appeared to prevent the marked loss in weight observed in the morphine controls
same,substitution for morphine,"[1]; rat, in vivo","ambiguous, with indication of partial substitution"
same,Mean % Change in Weight From Termination of Morphine Infusion,"[1]; rat, in vivo, 125 mg/kg/day",-2.64%
"C=C1C[C@H](C)[C@H]2[C@H]3Cc4ccc(OC)cc4[C@@]2(CCN3CC2CCC2)C1.Cl [TR-5377, 17-cyclobutylmethyl-3-methoxy-8β-methyl-6-methylene-morphinane Hydrochloride]",ED50,[2],6.42 mg/kg
"C=C1C[C@H](C)[C@H]2[C@H]3Cc4ccc(O)cc4[C@@]2(CCN3CC2CCC2)C1 [TR-5379, 17-Cyclobutylmethyl-3-hydroxy-8β-methyl-6-methylene morphinane]",ED50,[2],0.18 mg/kg
same,Incidence of Aggressive,[3]; [5],1/6
same,Incidence of Diarrhea,[3]; [5],4/6
same,Incidence of Pilo erection,[3]; [5],6/6
same,Incidence of Diarrhea,[3]; +24 hr,2.6
same,Incidence of Pilo erection,[3]; +24 hr,6/6
same,Incidence of Diarrhea,[3]; +30 hr,2/6
same,Incidence of Pilo erection,[3]; +30 hr,4/6
same,substitution for morphine,"[1]; rat, in vivo",did not substitute for morphine; also recorded: does not substitute for morphine
same,Mean % Change in Weight From Termination of Morphine Infusion,"[1]; rat, in vivo, 125 mg/kg/day",-11.3%
same,morphine antagonist action,[4]; compared with corresponding 6-keto analog,more potent morphine antagonist action than its corresponding 6-keto analog
same,dose-response curve,"[4]; compared with corresponding 6-keto analog, test not named",steeper dose-response curve
same,substitution for morphine,drug dependent monkeys,did not substitute for morphine
"C=C1C[C@H](C)[C@H]2[C@H]3Cc4ccc(OC)cc4[C@@]2(CCN3CC2CC2)C1 [TR-5412, 17-cyclopropylmethyl-3-methoxy-8β-methyl-6-methylene-morphinane]",ED50,[2],3.2 mg/kg
"C=C1C[C@H](C)[C@H]2[C@H]3Cc4ccc(O)cc4[C@@]2(CCN3CC2CC2)C1 [TR-5413, 17-Cyclopropylmethyl-3-hydroxy-8β-methyl-6-methylene-morphinane]",ED50,[2],1.7 mg/kg
"C=C1CC[C@H]2[C@H]3Cc4ccc(O)cc4[C@@]2(CCN3CC2CCC2)C1 [TR-5566, 17-Cyclobutylmethyl-3-hydroxy-6-methylene-morphinane Hydrochloride Acetone Solvate]",ED50,[2],0.09 mg/kg
"C=C1CC[C@H]2[C@H]3Cc4ccc(O)cc4[C@@]2(CCN3CC2CC2)C1 [TR-5609, 17-Cyclopropylmethyl-3-hydroxy-6-methylene-morphinan]",ED50,[2],0.38 mg/kg
"C=C1CC[C@H]2[C@H]3Cc4ccc(OC)cc4[C@@]2(CCN3CC2CCC2)C1 [TR-5610, 17-Cyclobutylmethyl-3-methoxy-6-methylene-morphinane Tartrate Ethanol Solvate]",ED50,[2],1.6 mg/kg
same,AD50 (dose required to inhibit the effect of morphine by 50%),"[4]; rat, test drug intraperitoneal, ED80 dose of morphine s.c. 10 min later",IA @ 10
